In PMC9780108, “An intrinsically disordered antimicrobial peptide dendrimer from stereorandomized virtual screening” (Cell Reports. Physical Science, 2022):
≈ marks a conversion by molar mass, not a printed value. Positions of bridges follow the written chain, without caps; N, C: chain ends. Non-standard residues stand in square brackets, D forms with d. Residues, ends and D or L forms follow the SMILES beside them. Groups on a side chain read outwards from the residue. Chains are numbered I, II in the order given. *: point of attachment. X4 = CC(C)C[C@@H](NC(=O)CCCCCN)C(=O)NCCCC[C@@H](NC(=O)[C@@H](CC(C)C)NC(=O)CCCCCN)C(=O)*; X3 = CC(C)C[C@H](NC(=O)CCCCCN)C(=O)NCCCC[C@H](NC(=O)[C@H](CC(C)C)NC(=O)CCCCCN)C(=O)*; Ahx = NCCCCCC(=O)O

Assays:
HEK293 cell line = assay type: cell-based; settings: 48 h
Procedure: HEK 293 cell line were cultured and maintained in DMEM (Dulbeccos modified Eagle
medium, Sigma Aldrich) supplemented with 10% FBS (Sigma Aldrich) and 1%
penicillin/streptomycin. Cells were incubated in a humidified incubator at 37°C in the presence
HEK 293 cell were seeded into 96 well plates at the density of 2 × 10^3 cells/well and incubated
in DMEM containing 10% FBS for 10-14 hours at 37°C in the presence of 5% CO2. The next
day, stock solution of compounds were prepared at concentration of 2 mg/mL in DMEM
containing 10% FBS. 1/2 or 1/3 serial dilution of the peptide dendrimers from 2 mg/mL or 200
µg/mL were performed in DMEM containing 10% FBS. The medium was removed from cell
culture and replaced with the compounds at different concentration after washing with PBS.
The cells were incubated in DMEM containing 10% FBS at 37°C in the presence of 5% CO 2.
Negative control was untreated cell culture without compounds and blank control was wells
without cell but only medium. After 48 hours, a final concentration of 10% AlamarBlue®
(Thermo Fisher Scientific, Reinach, CH) was added to each well . The cells were incubated for
3-5 hours at 37°C with 5% CO 2. The fluorescence was then measured on a Tecan Infinite
M1000 Pro plate reader at λex = 560 nm and λem = 590 nm. The value was normalized
according to the untreated cells.

E. coli W3110 = settings: for MIC at pH 5.0, E. coli W3110: W3110, pH 5; for MIC at pH 7.4, E. coli W3110: W3110, pH 7.4; for MIC at pH 8.0, E. coli W3110: W3110, pH 8
A. baumannii ATCC 19606 = settings: for MIC at pH 5.0, A. baumannii ATCC 19606: ATCC 19606, pH 5; for MIC at pH 7.4, A. baumannii ATCC 19606: ATCC 19606, pH 7.4; for MIC at pH 8.0, A. baumannii ATCC 19606: ATCC 19606, pH 8
P. aeruginosa PAO1 = settings: for MIC at pH 5.0, P. aeruginosa PAO1: PAO1, pH 5; for MIC at pH 7.4, P. aeruginosa PAO1: PAO1, pH 7.4; for MIC at pH 8.0, P. aeruginosa PAO1: PAO1, pH 8
K. pneumoniae NCTC 418 = settings: for MIC at pH 5.0, K. pneumoniae NCTC 418: NCTC 418, pH 5; for MIC at pH 7.4, K. pneumoniae NCTC 418: NCTC 418, pH 7.4; for MIC at pH 8.0, K. pneumoniae NCTC 418: NCTC 418, pH 8
[1] = test system: S aureus COL (methicillin-resistant Staphylococcus aureus); settings: for MIC at pH 5.0, S aureus COL: COL (methicillin-resistant, pH 5); for MIC at pH 7.4, S aureus COL: COL (methicillin-resistant, pH 7.4); for MIC at pH 8.0, S aureus COL: COL (methicillin-resistant, pH 8)

SMILES	IC50 HEK293 (HEK293 cell line) [µg/mL]	MIC at pH 5.0, E. coli W3110 (E. coli W3110) [μg/mL]	MIC at pH 7.4, E. coli W3110 (E. coli W3110) [μg/mL]	MIC at pH 8.0, E. coli W3110 (E. coli W3110) [μg/mL]	MIC at pH 5.0, A. baumannii ATCC 19606 (A. baumannii ATCC 19606) [μg/mL]	MIC at pH 7.4, A. baumannii ATCC 19606 (A. baumannii ATCC 19606) [μg/mL]	MIC at pH 8.0, A. baumannii ATCC 19606 (A. baumannii ATCC 19606) [μg/mL]	MIC at pH 5.0, P. aeruginosa PAO1 (P. aeruginosa PAO1)	MIC at pH 7.4, P. aeruginosa PAO1 (P. aeruginosa PAO1)	MIC at pH 8.0, P. aeruginosa PAO1 (P. aeruginosa PAO1)	MIC at pH 5.0, K. pneumoniae NCTC 418 (K. pneumoniae NCTC 418)	MIC at pH 7.4, K. pneumoniae NCTC 418 (K. pneumoniae NCTC 418)	MIC at pH 8.0, K. pneumoniae NCTC 418 (K. pneumoniae NCTC 418)	MIC at pH 5.0, S aureus COL [1] [μg/mL]	MIC at pH 7.4, S aureus COL [1] [μg/mL]	MIC at pH 8.0, S aureus COL [1] [μg/mL]
CC(C)C[C@@H](NC(=O)[C@@H](CC(C)C)NC(=O)[C@@H](CC(C)C)NC(=O)[C@@H](CCCCNC(=O)[C@@H](CC(C)C)NC(=O)[C@@H](CC(C)C)NC(=O)[C@@H](CCCCNC(=O)[C@@H](CCCCN)NC(=O)[C@@H](CC(C)C)NC(=O)[C@@H](CCCCNC(=O)[C@@H](CC(C)C)NC(=O)CCCCCN)NC(=O)[C@@H](CC(C)C)NC(=O)CCCCCN)NC(=O)[C@@H](CCCCN)NC(=O)[C@@H](CC(C)C)NC(=O)[C@@H](CCCCNC(=O)[C@@H](CC(C)C)NC(=O)CCCCCN)NC(=O)[C@@H](CC(C)C)NC(=O)CCCCCN)NC(=O)[C@@H](CC(C)C)NC(=O)[C@@H](CC(C)C)NC(=O)[C@@H](CCCCNC(=O)[C@@H](CCCCN)NC(=O)[C@@H](CC(C)C)NC(=O)[C@@H](CCCCNC(=O)[C@@H](CC(C)C)NC(=O)CCCCCN)NC(=O)[C@@H](CC(C)C)NC(=O)CCCCCN)NC(=O)[C@@H](CCCCN)NC(=O)[C@@H](CC(C)C)NC(=O)[C@@H](CCCCNC(=O)[C@@H](CC(C)C)NC(=O)CCCCCN)NC(=O)[C@@H](CC(C)C)NC(=O)CCCCCN)C(N)=O [D-aX18] (I: H-[Ahx][dL][dK]([dL-Ahx])[dL][dK][dK]([dK-dL-X4])[dL][dL][dK][dL][dL][dL]-NH2 / II: H-[Ahx][dL][dK]([dL-Ahx])[dL][dK][dK]([dK-dL-X4])[dL][dL]; amide I:9-II:C)	21 ± 2 (≈ 4.69 µM)	32	> 64	32	32	> 64	16	64/>64/64 μg/mL	64/>64/64 μg/mL	64/>64/64 μg/mL	>64/>64/>64 μg/mL	>64/>64/>64 μg/mL	>64/>64/>64 μg/mL	> 64	> 64	16
CC(C)C[C@@H](NC(=O)[C@@H](CC(C)C)NC(=O)[C@@H](CCCCN)NC(=O)[C@@H](CCCCNC(=O)[C@@H](CC(C)C)NC(=O)[C@@H](CC(C)C)NC(=O)[C@@H](CCCCNC(=O)[C@@H](CC(C)C)NC(=O)[C@@H](CCCCN)NC(=O)[C@@H](CCCCNC(=O)[C@@H](CC(C)C)NC(=O)[C@H](N)CCCCN)NC(=O)[C@@H](CC(C)C)NC(=O)[C@H](N)CCCCN)NC(=O)[C@@H](CC(C)C)NC(=O)[C@@H](CCCCN)NC(=O)[C@@H](CCCCNC(=O)[C@@H](CC(C)C)NC(=O)[C@H](N)CCCCN)NC(=O)[C@@H](CC(C)C)NC(=O)[C@H](N)CCCCN)NC(=O)[C@@H](CC(C)C)NC(=O)[C@@H](CC(C)C)NC(=O)[C@@H](CCCCNC(=O)[C@@H](CC(C)C)NC(=O)[C@@H](CCCCN)NC(=O)[C@@H](CCCCNC(=O)[C@@H](CC(C)C)NC(=O)[C@H](N)CCCCN)NC(=O)[C@@H](CC(C)C)NC(=O)[C@H](N)CCCCN)NC(=O)[C@@H](CC(C)C)NC(=O)[C@@H](CCCCN)NC(=O)[C@@H](CCCCNC(=O)[C@@H](CC(C)C)NC(=O)[C@H](N)CCCCN)NC(=O)[C@@H](CC(C)C)NC(=O)[C@H](N)CCCCN)C(N)=O [D-T25, reference compound] (HELM PEPTIDE1{[dK].[dL].[dK].[dK].[dL].[dK].[dL].[dL].[dK].[dK].[dL].[dL].[am]}|PEPTIDE2{[dK].[dL]}|PEPTIDE3{[dK].[dL].[dK].[dK].[dL].[dK].[dL].[dL]}|PEPTIDE4{[dK].[dL]}|PEPTIDE5{[dK].[dL].[dK].[dK].[dL]}|PEPTIDE6{[dK].[dL]}|PEPTIDE7{[dK].[dL].[dK].[dK].[dL]}|PEPTIDE8{[dK].[dL]}$PEPTIDE1,PEPTIDE2,3:R3-2:R2|PEPTIDE3,PEPTIDE4,3:R3-2:R2|PEPTIDE5,PEPTIDE6,3:R3-2:R2|PEPTIDE7,PEPTIDE8,3:R3-2:R2|PEPTIDE1,PEPTIDE7,6:R3-5:R2|PEPTIDE1,PEPTIDE3,9:R3-8:R2|PEPTIDE3,PEPTIDE5,6:R3-5:R2$$$V2.0)	33 ± 3 (≈ 7.15 µM)	32	8	4	32	8	4	32 μg/mL	8 μg/mL	8 μg/mL	> 64 μg/mL	16 μg/mL	16 μg/mL	> 64	> 64	32
CC(C)C[C@H](NC(=O)CCCCCN)C(=O)NCCCC[C@H](NC(=O)[C@H](CC(C)C)NC(=O)CCCCCN)C(=O)N[C@@H](CC(C)C)C(=O)NCCCC[C@H](NC(=O)[C@H](CC(C)C)NC(=O)[C@H](CCCCNC(=O)[C@H](CC(C)C)NC(=O)CCCCCN)NC(=O)[C@H](CC(C)C)NC(=O)CCCCCN)C(=O)N[C@@H](CCCCN)C(=O)N[C@@H](CC(C)C)C(=O)N[C@@H](CC(C)C)C(=O)NCCCC[C@H](NC(=O)[C@H](CC(C)C)NC(=O)[C@H](CC(C)C)NC(=O)[C@H](CCCCN)NC(=O)[C@H](CCCCNC(=O)[C@H](CC(C)C)NC(=O)[C@H](CCCCNC(=O)[C@H](CC(C)C)NC(=O)CCCCCN)NC(=O)[C@H](CC(C)C)NC(=O)CCCCCN)NC(=O)[C@H](CC(C)C)NC(=O)[C@H](CCCCNC(=O)[C@H](CC(C)C)NC(=O)CCCCCN)NC(=O)[C@H](CC(C)C)NC(=O)CCCCCN)C(=O)N[C@@H](CC(C)C)C(=O)N[C@@H](CCCCN)C(=O)N[C@@H](CCCCN)C(N)=O [L-aX22] (I: H-[Ahx]LK([Leu-Ahx])LK([Leu-X3])KLLKLKK-NH2 / II: H-[Ahx]LK([Leu-Ahx])LK([Leu-X3])KLL; amide I:9-II:C)	24 ± 3 (≈ 5.64 µM)	2	4	4	2	4	4	16 μg/mL	8 μg/mL	16 μg/mL	64 μg/mL	8 μg/mL	8 μg/mL	64	16	4
